Patent US11932658B2 (BRISTOL-MYERS SQUIBB COMPANY, priority 2016, dated 2024)

Molecular target: T1, PAR4 (Homo sapiens, UniProt Q96RI0)
T1 construct: expressed in transfected cells; host or cells: HEK293 PAR4 Clone 1.2A (BMS Arctic ID 383940)
T1 sequence (Q96RI0 18-385): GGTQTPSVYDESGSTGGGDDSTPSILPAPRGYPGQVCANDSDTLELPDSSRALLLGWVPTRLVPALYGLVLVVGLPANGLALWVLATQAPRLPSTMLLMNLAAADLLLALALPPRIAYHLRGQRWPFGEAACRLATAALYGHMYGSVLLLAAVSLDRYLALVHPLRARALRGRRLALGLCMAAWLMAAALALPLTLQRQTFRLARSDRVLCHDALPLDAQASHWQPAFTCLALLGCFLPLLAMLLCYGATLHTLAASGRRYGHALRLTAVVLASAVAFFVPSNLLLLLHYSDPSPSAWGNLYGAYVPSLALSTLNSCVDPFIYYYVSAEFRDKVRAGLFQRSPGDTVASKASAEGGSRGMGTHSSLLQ
Experiment: PAR4 FLIPR assay (antagonism of agonist peptide-induced calcium mobilization)
Format: cell-based
Procedure, shortened: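 Antagonism was taken as block of calcium mobilization evoked by the agonist peptide H-Ala-Phe(4-F)-Pro-Gly-Trp-Leu-Val-Lys-Asn-[…]-NH2, added after 30 min room-temperature compound preincubation in dye-loaded PAR4-transfected HEK293 cells (endogenous PAR1). Fluorescence was read on FDSS, with compound addition alone used as the agonist counter-screen; values come from 11-point concentration-response curves.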

Structure (SMILES) | IC50
COc1cnc2c(-c3nc4c(C)cc5c(c4s3)OCC(COC(=O)Nc3cncc(-c4ccccc4)c3)O5)cc(C)cc2n1 (centres unmarked) [Example 126, (2-(2-methoxy-7-methylquinoxalin-5-yl)-4-methyl-7,8-dihydro-[1,4]dioxino[2′,3′:3,4]benzo[1,2-d]thiazol-7-yl)methyl (5-phenylpyridin-3-yl)carbamate] | 67 nM
COc1cnc2c(-c3nc4c(C)cc5c(c4s3)OC[C@H](COC(=O)Nc3ccc4scnc4c3)O5)cc(C)cc2n1 [Example 49, (R)-(2-(2-methoxy-7-methylquinoxalin-5-yl)-4-methyl-7,8-dihydro-[1,4]dioxino[2′,3′:3,4]benzo[1,2-d]thiazol-7-yl)methyl benzo[d]thiazol-5-ylcarbamate] | 49 nM
COc1cnc2c(-c3nc4c(C)cc5c(c4s3)OC[C@H](COC(=O)Nc3cncc(C#N)c3)O5)cc(C)cc2n1 [Example 51, (R)-(2-(2-methoxy-7-methylquinoxalin-5-yl)-4-methyl-7,8-dihydro-[1,4]dioxino[2′,3′:3,4]benzo[1,2-d]thiazol-7-yl)methyl (5-cyanopyridin-3-yl)carbamate] | 16 nM
CCOC(=O)NCC1Cc2c(ccc3nc(-c4cc(C)cc5nc(OC)cnc45)sc23)O1 (centres unmarked) [Example 197, Ethyl ((2-(2-methoxy-7-methylquinoxalin-5-yl)-7,8-dihydrobenzofuro[5,4-d]thiazol-7-yl)methyl)carbamate] | 22 nM
COc1cnc2c(-c3nc4cc(F)c5c(c4s3)C[C@H](CO)O5)cc(Cl)cc2c1 [Example 282, (R)-(2-(6-chloro-3-methoxyquinolin-8-yl)-5-fluoro-7,8-dihydrobenzofuro[5,4-d]thiazol-7-yl)methanol] | 36 nM
COc1cnc2c(-c3nc4c(C)cc5c(c4s3)OCC(COC(=O)Nc3ccc(Oc4ccccc4)nc3)O5)cc(C)cc2n1 (centres unmarked) [Example 121, (2-(2-methoxy-7-methylquinoxalin-5-yl)-4-methyl-7,8-dihydro-[1,4]dioxino [2′,3′:3,4]benzo[1,2-d]thiazol-7-yl)methyl (6-phenoxypyridin-3-yl)carbamate] | 8.2 nM
COc1cnc2c(-c3nc4c(F)cc5c(c4s3)OC[C@H](COC(=O)Nc3cccnc3)O5)cc(C)cc2n1 [Example 70, (R)-(4-fluoro-2-(2-methoxy-7-methylquinoxalin-5-yl)-7,8-dihydro-[1,4]dioxino[2′,3′:3,4]benzo[1,2-d]thiazol-7-yl)methyl pyridin-3-ylcarbamate] | 25 nM
COc1cnc2c(-c3nc4cc(F)c5c(c4s3)[C@@H](C)[C@H](CO)O5)cc(C)cc2n1 [Example 239, ((7R,8R)-5-fluoro-2-(2-methoxy-7-methylquinoxalin-5-yl)-8-methyl-7,8-dihydrobenzofuro[5,4-d]thiazol-7-yl)methanol] | 49 nM
COc1cnc2c(-c3nc4ccc5c(c4s3)C[C@@H](CNC(=O)OCC3CCOC3)O5)cc(C)cc2n1 (stereo partly drawn) [Example 229, (Tetrahydrofuran-3-yl)methyl (((S)-2-(2-methoxy-7-methylquinoxalin-5-yl)-7,8-dihydrobenzofuro[5,4-d]thiazol-7-yl)methyl)carbamate] | 20 nM
COc1cnc2c(-c3nc4cc(F)c5c(c4s3)C[C@H](COC(=O)Nc3ccc(C(=O)N4CCOCC4)cc3)O5)cc(C)cc2n1 [Example 169, (R)-(5-fluoro-2-(2-methoxy-7-methylquinoxalin-5-yl)-7,8-dihydrobenzofuro[5,4-d]thiazol-7-yl)methyl (4-(morpholine-4-carbonyl)phenyl)carbamate] | 6.6 nM
COc1cnc2c(-c3nc4c(C)cc5c(c4s3)OCC(COC(=O)Nc3ccc(-c4cccs4)nc3)O5)cc(C)cc2n1 (centres unmarked) [Example 127, (2-(2-methoxy-7-methylquinoxalin-5-yl)-4-methyl-7,8-dihydro-[1,4]dioxino[2′,3′:3,4]benzo[1,2-d]thiazol-7-yl)methyl (6-(thiophen-2-yl)pyridin-3-yl) carbamate] | 130 nM
COc1cnc2c(-c3nc4cc(F)c5c(c4s3)C[C@H](CNC(=O)C(F)(F)F)O5)cc(C)cc2n1 [Example 222, (R)-2,2,2-trifluoro-N-((5-fluoro-2-(2-methoxy-7-methylquinoxalin-5-yl)-7,8-dihydrobenzofuro[5,4-d]thiazol-7-yl)methyl)acetamide] | > 500 nM

The next molecules have a lower IC50 than those just listed; values first:

IC50 | Structure (SMILES)
1.7 nM | COc1cnc2c(-c3nc4ccc5c(c4s3)OC[C@H](COC(=O)Nc3cnc4[nH]ccc4c3)O5)cc(C)cc2n1 [Example 107, (R)-(2-(2-methoxy-7-methylquinoxalin-5-yl)-7,8-dihydro-[1,4]dioxino[2′,3′:3,4]benzo [1,2-d]thiazol-7-yl)methyl 1H-pyrrolo[2,3-b]pyridin-5-ylcarbamate]
1.6 nM | COc1ccc(NC(=O)OC[C@H]2COc3c(cc(Cl)c4nc(-c5cc(C)cc6nc(OC)cnc56)sc34)O2)cn1 [Example 1, (R)-(4-chloro-2-(2-methoxy-7-methylquinoxalin-5-yl)-7,8-dihydro-[1,4]dioxino[2′,3′:3,4]benzo[1,2-d]thiazol-7-yl)methyl (6-methoxypyridin-3-yl)carbamate]
0.7 nM | COc1cnc2c(-c3nc4cc(F)c5c(c4s3)C[C@H](COC(=O)Nc3cccc(C#N)c3)O5)cc(C)cc2n1 [Example 162, (R)-(5-fluoro-2-(2-methoxy-7-methylquinoxalin-5-yl)-7,8-dihydrobenzofuro[5,4-d]thiazol-7-yl)methyl (3-cyanophenyl)carbamate]
1.6 nM | COc1cnc2c(-c3nc4ccc5c(c4s3)C[C@](C)(COC(=O)Nc3cccc(C#N)c3)O5)cc(C)cc2n1 [Example 196, (R)-(2-(2-methoxy-7-methylquinoxalin-5-yl)-7-methyl-7,8-dihydrobenzofuro[5,4-d]thiazol-7-yl)methyl (3-cyanophenyl)carbamate]
2.8 nM | COc1cnc2c(-c3nc4cc(F)c5c(c4s3)C[C@H](COC(=O)Nc3cnc(OC)nc3)O5)cc(C)cc2n1 [Example 177, (R)-(5-fluoro-2-(2-methoxy-7-methylquinoxalin-5-yl)-7,8-dihydrobenzofuro[5,4-d]thiazol-7-yl)methyl (2-methoxypyrimidin-5-yl)carbamate]
1.7 nM | COc1cnc2c(-c3nc4ccc5c(c4s3)C[C@@](C)(CO)O5)cc(C)cc2n1 (single isomer, unassigned) [Example 187]
3 nM | COc1ccc(NC(=O)OC[C@H]2COc3c(cc(C)c4oc(-c5cc(C)cc6nc(OC)cnc56)cc34)O2)cn1 [Example 16, (R)-(8-(2-methoxy-7-methylquinoxalin-5-yl)-6-methyl-2,3-dihydro-[1,4]dioxino[2,3-e]benzofuran-3-yl)methyl (6-methoxypyridin-3-yl)carbamate]
1.6 nM | COc1cnc2c(-c3nc4ccc5c(c4s3)OC[C@H](COC(=O)Nc3ccc(C#N)nc3)O5)cc(C)cc2n1 [Example 105, (R)-(2-(2-methoxy-7-methylquinoxalin-5-yl)-7,8-dihydro-[1,4]dioxino[2′,3′:3,4]benzo[1,2-d]thiazol-7-yl)methyl (6-cyanopyridin-3-yl)carbamate]
1.5 nM | COc1cnc2c(-c3nc4c(C)cc5c(c4s3)OCC(COC(=O)Nc3ccc(-n4cnc(C)n4)nc3)O5)cc(C)cc2n1 (centres unmarked) [Example 130, (2-(2-methoxy-7-methylquinoxalin-5-yl)-4-methyl-7,8-dihydro-[1,4]dioxino[2′,3′:3,4]benzo[1,2-d]thiazol-7-yl)methyl (6-(3-methyl-1H-1,2,4-triazol-1-yl)pyridin-3-yl)carbamate]
3.6 nM | COc1cnc2c(-c3nc4c(Cl)cc5c(c4s3)OC[C@H](COC(=O)Nc3ccncc3)O5)cc(C)cc2n1 [Example 30, (R)-(4-chloro-2-(2-methoxy-7-methylquinoxalin-5-yl)-7,8-dihydro-[1,4]dioxino[2′,3′:3,4]benzo[1,2-d]thiazol-7-yl)methyl pyridin-4-ylcarbamate]
1.9 nM | COc1ccc(NC(=O)OC[C@H]2COc3c(ccc4nc(-c5cc(C)cc6nc(OC)cnc56)sc34)O2)cn1 [Example 104, (R)-(2-(2-methoxy-7-methylquinoxalin-5-yl)-7,8-dihydro-[1,4]dioxino[2′,3′:3,4]benzo[1,2-d]thiazol-7-yl)methyl (6-methoxypyridin-3-yl)carbamate]
1.1 nM | COc1cnc2c(-c3nc4cc(F)c5c(c4s3)C[C@H](COC(=O)Nc3ccc(OCC(F)(F)CO)nc3)O5)cc(C)cc2n1 [Example 166, (R)-(5-fluoro-2-(2-methoxy-7-methylquinoxalin-5-yl)-7,8-dihydrobenzofuro[5,4-d]thiazo 1-7-yl)methyl (6-(2,2-difluoro-3-hydroxypropoxy)pyridin-3-yl)carbamate]
0.8 nM | COc1cnc2c(-c3nc4cc(F)c5c(c4s3)C[C@H](COC(=O)Nc3cccnc3)O5)cc(C)cc2n1 [Example 157, (R)-(5-fluoro-2-(2-methoxy-7-methylquinoxalin-5-yl)-7,8-dihydrobenzofuro[5,4-d]thiazo 1-7-yl)methyl pyridin-3-ylcarbamate]
2.1 nM | COc1cnc2c(-c3nc4c(C)cc5c(c4s3)OCC(COC(=O)Nc3cnc4c(c3)CN(C(=O)OC(C)(C)C)CC4)O5)cc(C)cc2n1 (centres unmarked) [Example 139, tert-butyl 3-((((2-(2-methoxy-7-methylquinoxalin-5-yl)-4-methyl-7,8-dihydro-[1,4]dioxino[2′,3′:3,4]benzo[1,2-d]thiazol-7-yl)methoxy)carbonyl)amino)-7,8-dihydro-1,6-naphthyridine-6(5H)-carboxylate]
